Assay results taken from US8822533B1, “Methods and compositions for repelling and/or killing insects” (The United States of America, as represented by the …, priority 2011, dated 2014).

How the values were obtained:
Ae. aegypti mosquitoes = assay: Sleeve bite protection assay on treated uniform fabric, mosquitoes; assay type: in vivo, Aedes aegypti (Orlando, 1952)
Procedure: (§1) Biological Evaluation: Bite protection assays were conducted with laboratory-reared 7-12 day old mosquitoes or sand flies. The species used throughout these studies are Aedes aegypti (Orlando, 1952) and Phlebotomus papatasi sand flies (Jerusalem, 1983). Females were pre-selected using either a hand draw box or a mechanical aspirator. An assay was conducted by wearing sewn sleeves made from clothing material. Treated specimens were assayed with untreated controls to correct for the bite resistance afforded by material construction and composition. The untreated control was tested at the beginning of the experiment, followed by successively higher candidate repellent concentrations on sleeves. Sleeves were sewn from a cut out single ply trapezoidal pattern (33.2 cm×21 cm×25.5 cm height) of material. […] Permethrin was 35:65cis: trans, 95.85% technical material. Experimental repellents were received as neat samples with <5% impurities. The treatment occurred by dissolution of repellent in suitable quantity of acetone to saturate the clothing, but minimizing excess solution. Excess solution was quantified and this amount of excess was then used to calculate the estimated amount of repellent applied to the material. […] The photoperiod was 12:12. The mosquito cages were approximately 60000 cm^3 and each contained 175 to 225 female mosquitoes. […] Cages for sand fly work were slightly smaller (15000 cm^3) and constructed of acrylic for filming purposes and with screens on the exterior edges to allow air flow through the system. About 20-40 sand flies were released in cages for each assay. Assays started when the sleeved arm was inserted through the sleeve into the cage. Normally the hand was protected by a glove, but there were situations (i.e. sand fly data presented here) when the ability of a repellent to protect the untreated hand was determined. The assay periods were 15 min for the mosquitoes and 25-30 minutes for sand flies. The insects were allowed to land, probe and possibly bloodfeed during this time. At the conclusion of the experiment, all insects were knocked down or aspirated and the percentage that bloodfed of the total female test population in the cage was recorded. The protect level was calculated by Abbott's formula as a percentage reduction in bites compared to the untreated fabric control sleeve. Specific conditions for bioassays are noted with corresponding data contained in the Tables.

[1] = test system: Phlebotomus papatasi sand flies; assay: Sleeve bite protection assay on treated uniform fabric, sand flies; assay type: in vivo, Phlebotomus papatasi (Jerusalem, 1983); settings: FRACU, 25-29 minutes
Procedure: as §1

[2] = test system: Mosquitoes, either Aedes aegypti (Liverpool) or Anopheles stephensi Liston; assay: K&D module in vitro bioassay: biting protection, knockdown and mortality; assay type: in vivo
Procedure: In vitro bioassays were conducted as described by Klun et. al. (Klun, J. A., et al., J. Med. Entomol., 40: 293-299 (2005)). Each test replicate consisted of 3 treatments: a control (EtOH); a standard (Deet, 4.54 nmol/μl); and an experimental compound (pyrethroid analogs, 4.54 nmol/ul). The 3 treatments were randomly assigned to consecutive cells in 2, 6-cell reservoirs connected in series to a single water-bath pump; thus, 4 replicates could be tested/run. Tests were performed in an Air Science USA hood, with an air movement velocity of approx. 110-120 ft./min., temperature of 25-27° C., and RH of 15-25%. A 6-celled reservoir was connected to and heated by a constant-temperature (38° C.) water circulator (Lauda E100, Wobser GMGH and Co., Konigshofell, Germany).
Prior to each test, the upper surface of each reservoir was coated with a thin layer of high-vacuum silicone grease (Dow Corning Corp., Midland, Mich.), and the cells then filled (approx. 6 ml. capacity) or topped-off with either: (1) expired human red blood cells suspended in citrate-phosphate-dextrose-adenine (CPDA) solution, not more than 1 month past expiration date, and to which 110 mg ATP/35 ml. blood-CPDA had been added on the day of testing; or (2) CPDA+ATP×^−3, usually made up or diluted to 10^−3 ATP on the day of testing. The filled cells were then covered with an Edicol collagen membrane (Devro, Sandy Run, S.C.) strip, and then with a just-treated (110 μl of 4.54 nmol/μl treatment or control solution) organdy cloth (G Street Fabrics, Rockville, Md.) strip. Mosquitoes used in tests were either Aedes aegypti_(Liverpool) or Anopheles stephensi_Liston. K&D modules containing 5 adult females/cell were placed over a Teflon separator atop each reservoir; the sliding floors opened allowing access to the treated organdy cloth and membrane-covered cell; and the number of mosquitoes biting (proboscis inserted through the cloth) and/or observed to be engorged within each cell at the end of a 3-5 min. exposure period was recorded. Mosquitoes were used only once in a test, and then frozen and discarded.
Only tests in which 3 or more females fed in the control cell were analyzed, as lower feeding rates are indicative of substandard feeding readiness of that group of mosquitoes.
[…] Data were collected to record knockdown in 6 minutes, one hour and 24 hours post exposure.

[3] = ACU (50/50 NYCO) sleeve, glove on hand, 15 min, permethrin 0.118, transfluthrin 0.108, TL-I-107 0.107, TL-I-141 0.109, TL-I-105 0.107, TL-I-73 0.102 mg/cm^2
[4] = ACU (50/50 NYCO) sleeve, glove on hand, Abbott's formula vs untreated sleeve, concentrations as E1
[5] = ACU (50/50 NYCO) sleeve, glove on hand, concentrations as E1
[6] = ACU sleeve, No Glove on hand, permethrin 0.118, transfluthrin 0.108 mg/cm^2
[7] = ACU sleeve, stored one year then tested, concentrations as E1
[8] = ACU sleeve, treated specimens stored in refrigerator for one year then tested, concentrations as E1
[9] = FRACU sleeve, concentrations as E9
[10] = FRACU, permethrin sleeve 0.135 mg/cm^2 + untreated strip, Ultrathon (34.34% DEET) on hand
[11] = FRACU, permethrin sleeve 0.135 mg/cm^2 + untreated strip, hand gloved
[12] = permethrin sleeve 0.135 mg/cm^2 + untreated strip, hand ungloved
[13] = FRACU, untreated sleeve + treated strip, Ultrathon (34.34% DEET) on hand, TL-I-73 0.163, transfluthrin 0.158 mg/cm^2
[14] = FRACU, untreated sleeve + treated strip, hand gloved, TL-I-73 0.163, transfluthrin 0.158 mg/cm^2
[15] = untreated sleeve + TL-I-73 strip 0.163 mg/cm^2, hand ungloved

SMILES | Blood-fed # (Ae. aegypti mosquitoes; [3]) | Bite Protection (%) (Ae. aegypti mosquitoes; [4]) | Fed (%) (Ae. aegypti mosquitoes; [5]) | Bite Protection (%) (Ae. aegypti mosquitoes; [7]) | Fed (%) (Ae. aegypti mosquitoes; [7]) | Blood-fed # (Ae. aegypti mosquitoes; [8]) | Knockdown 6 min (%) ([2]; 2.5 nM\cm^2, K&D module) | Knockdown 1 hour (%) ([2]; 2.5 nM\cm^2, K&D module) | Knockdown 24 hours (%) ([2]; 2.5 nM\cm^2, K&D module) | Not feeding 3 minutes (%) ([2]; 2.5 nM\cm^2, K&D module) | Knockdown 6 min (%) ([2]; 25 nM\cm^2, K&D module) | Knockdown 1 hour (%) ([2]; 25 nM\cm^2, K&D module) | Knockdown 24 hours (%) ([2]; 25 nM\cm^2, K&D module) | Not feeding 3 minutes (%) ([2]; 25 nM\cm^2, K&D module) | further results
CC1(C)C(C=C(Cl)Cl)C1C(=O)OCc1cccc(Oc2ccccc2)c1 (centres unmarked) [Permethrin] | 0 # | 100% | 0.0% | 100% | 0.0% | 0 # |  |  |  |  |  |  |  |  | Blood-fed # (Ae. aegypti mosquitoes; [6]): 32 #; Fed (%) (Ae. aegypti mosquitoes; [6]): 18.1%; Blood-fed # (Ae. aegypti mosquitoes; FRACU (65% Rayon, 10% Nylon, 25% Para-aramid) sleeve, permethrin 0.071, combination permethrin 0.031 + transfluthrin 0.038, transfluthrin 0.052 mg/cm^2): 24 #; Bite Protection (%) (Ae. aegypti mosquitoes; [9]): 86.7%; Fed (%) (Ae. aegypti mosquitoes; [9]): 10.5%; Bite Protection (%) (Ae. aegypti mosquitoes; [10]): 71.5%; Blood-fed # (Ae. aegypti mosquitoes; [10]): 15 #; Fed (%) (Ae. aegypti mosquitoes; [10]): 7.6%; Bite Protection (%) (Ae. aegypti mosquitoes; [11]): 94.0%; Blood-fed # (Ae. aegypti mosquitoes; [11]): 10 #; Fed (%) (Ae. aegypti mosquitoes; [11]): 4.9%; Bite Protection (%) [1, 12]: −28.5%; Blood-fed # [1, 12]: 11 #; Fed (%) [1, 12]: 52.3%; Bite Protection (%) ([1]; permethrin sleeve 0.135 mg/cm^2 + untreated strip, hand ungloved, listed as permethrin): increased bites on the skin
COCc1c(Cl)c(Cl)c(COC(=O)[C@@H]2[C@@H](C=C(C)C)C2(C)C)c(Cl)c1Cl [TL-I-73] | 0 # | 100% | 0.0% | 100% | 0.0% | 0 # | 97% | 100% | 100% | 100% | 97% | 100% | 100% | 100% | Blood-fed # (Ae. aegypti mosquitoes; FRACU, untreated sleeve + treated strip (20.5 cm × 2.6 cm) at wrist, hand gloved, TL-I-73 0.163, transfluthrin 0.158 mg/cm^2): 71 #; Blood-fed # (Ae. aegypti mosquitoes; FRACU, untreated sleeve + treated strip, Ultrathon 12 hr repellent (34.34% DEET) on hand, TL-I-73 0.163, transfluthrin 0.158 mg/cm^2): 85 #; Bite Protection (%) (Ae. aegypti mosquitoes; [13]): −45%; Fed (%) (Ae. aegypti mosquitoes; [13]): 38.8%; Bite Protection (%) (Ae. aegypti mosquitoes; [14]): 57.2%; Fed (%) (Ae. aegypti mosquitoes; [14]): 10.5%; Bite Protection (%) [1, 15]: 21.8%; Blood-fed # [1, 15]: 7 #; Fed (%) [1, 15]: 31.8%
CC(C)=C[C@@H]1[C@@H](C(=O)OCc2c(Cl)c(Cl)c(C)c(Cl)c2Cl)C1(C)C [TL-I-109] |  |  |  |  |  |  | 4% | 35% | 6% | 98% | 4% | 58% | 37% | 98% | 
Cc1c(Cl)c(Cl)c(COC(=O)C2C(C=C(Cl)Cl)C2(C)C)c(Cl)c1Cl (centres unmarked) [TL-I-111] |  |  |  |  |  |  | 0% | 16% | 8% | 90% | 2% | 23% | 16% | 92% | 
Cc1c(Cl)c(Cl)c(COC(=O)C2C(C=C(Cl)C(F)(F)F)C2(C)C)c(Cl)c1Cl (centres unmarked) [TL-I-113] |  |  |  |  |  |  | 0% | 14% | 9% | 76% | 0% | 34% | 23% | 92% | 
Cc1c(F)c(F)c(COC(=O)[C@@H]2[C@@H](C=C(Cl)Cl)C2(C)C)c(F)c1F [TL-I-141] | 0 # | 100% | 0.0% | 100% | 0.0% | 0 # | 100% |  | 100% | 100% | 100% |  | 100% | 100% | Knockdown 1 hour (%) ([2]; 2.5 nmol/cm^2, K&D module): 100%; Knockdown 1 hour (%) ([2]; 25 nmol/cm^2, K&D module): 100%; mortality at 0.0025 µM ([2]; Aedes aegypti, 24 h): 100%; mortality at 0.025 µM ([2]; Aedes aegypti, 48 h): 100%
CC1(C)C(C=C(Cl)Cl)C1C(=O)OC(C#N)c1cccc(Oc2ccccc2)c1 (centres unmarked) [a-cypermethrin, reference compound] |  |  |  |  |  |  | 67% | 91% | 100% | 81% | 83% | 100% | 100% | 98% | 
